Where “and” joins values, the source holds several entries; their conditions need not be identical. Identical values can stand only once.
Tests used:
[1] = target: SARS-CoV-2 S protein (Severe acute respiratory syndrome coronavirus 2, UniProt P0DTC2); assay: cell-based; format: cell-based
[2] = target: SARS-CoV S protein (Severe acute respiratory syndrome coronavirus, UniProt P59594); assay: cell-based; format: cell-based
[3] = system: HCoV-NL63 PsV
[4] = system: SARS-CoV-2 PsV
[5] = target: MERS-CoV S protein (Middle East respiratory syndrome-related coronavirus, UniProt K9N5Q8); assay: cell-based; format: cell-based
[6] = system: Rs3367 PsV
[7] = system: HCoV-OC43; format: in vivo, mice
[8] = system: live HCoV-229E
[9] = system: live HCoV-NL63
[10] = system: HCoV-OC43 PsV; conditions: 72 h
[11] = system: SARS-CoV PsV; conditions: 72 h
[12] = system: live SARS-CoV-2
[13] = target: SARS-2-HR1 (Severe acute respiratory syndrome coronavirus 2, UniProt P0DTC2); format: binding, SARS-CoV-2
[14] = system: MERS-CoV PsV; conditions: 72 h
[15] = system: live HCoV-OC43
[16] = system: WIV1 PsV
[17] = target: HCoV-OC43 S protein (Human coronavirus OC43, UniProt P36334); assay: cell-based; format: cell-based
[18] = system: live MERS-CoV
[19] = system: HCoV-229E PsV

MERS-CoV S protein, sequence (K9N5Q8 18-1353 limits assumed): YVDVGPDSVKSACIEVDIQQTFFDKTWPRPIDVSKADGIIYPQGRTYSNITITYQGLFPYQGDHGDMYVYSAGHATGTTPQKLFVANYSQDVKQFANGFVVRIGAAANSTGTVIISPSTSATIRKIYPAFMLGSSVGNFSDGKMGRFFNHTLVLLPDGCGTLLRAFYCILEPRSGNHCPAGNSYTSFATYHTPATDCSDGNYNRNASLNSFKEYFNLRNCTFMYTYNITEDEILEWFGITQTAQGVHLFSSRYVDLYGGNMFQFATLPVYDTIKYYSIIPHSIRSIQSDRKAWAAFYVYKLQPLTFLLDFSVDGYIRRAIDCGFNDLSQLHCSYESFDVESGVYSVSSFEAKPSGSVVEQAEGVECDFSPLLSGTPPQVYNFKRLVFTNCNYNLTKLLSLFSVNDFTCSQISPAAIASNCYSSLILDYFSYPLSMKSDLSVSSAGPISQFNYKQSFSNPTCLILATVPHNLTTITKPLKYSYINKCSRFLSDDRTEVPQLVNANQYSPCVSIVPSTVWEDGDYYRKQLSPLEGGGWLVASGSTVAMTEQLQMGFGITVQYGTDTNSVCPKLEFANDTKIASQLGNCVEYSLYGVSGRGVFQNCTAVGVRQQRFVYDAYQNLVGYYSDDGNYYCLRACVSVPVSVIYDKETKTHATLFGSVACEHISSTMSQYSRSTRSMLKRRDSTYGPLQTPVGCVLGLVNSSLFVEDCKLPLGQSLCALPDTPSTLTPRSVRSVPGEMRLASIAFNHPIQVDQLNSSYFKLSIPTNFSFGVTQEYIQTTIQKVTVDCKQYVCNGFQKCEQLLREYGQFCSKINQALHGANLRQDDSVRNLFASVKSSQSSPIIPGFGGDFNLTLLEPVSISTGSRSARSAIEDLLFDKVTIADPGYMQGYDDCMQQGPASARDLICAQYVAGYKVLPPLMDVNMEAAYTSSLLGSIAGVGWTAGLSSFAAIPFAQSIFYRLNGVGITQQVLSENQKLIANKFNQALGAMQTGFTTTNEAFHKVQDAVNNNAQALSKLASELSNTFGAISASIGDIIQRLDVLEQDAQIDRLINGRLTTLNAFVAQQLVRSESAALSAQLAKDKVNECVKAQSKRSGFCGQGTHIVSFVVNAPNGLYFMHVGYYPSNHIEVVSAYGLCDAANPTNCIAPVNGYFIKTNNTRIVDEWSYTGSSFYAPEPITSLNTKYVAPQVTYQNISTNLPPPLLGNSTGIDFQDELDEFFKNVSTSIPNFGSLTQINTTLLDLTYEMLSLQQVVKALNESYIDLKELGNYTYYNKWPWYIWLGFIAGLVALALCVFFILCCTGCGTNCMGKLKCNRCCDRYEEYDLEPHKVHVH
HCoV-OC43 S protein, sequence (P36334 14-1353 limits assumed): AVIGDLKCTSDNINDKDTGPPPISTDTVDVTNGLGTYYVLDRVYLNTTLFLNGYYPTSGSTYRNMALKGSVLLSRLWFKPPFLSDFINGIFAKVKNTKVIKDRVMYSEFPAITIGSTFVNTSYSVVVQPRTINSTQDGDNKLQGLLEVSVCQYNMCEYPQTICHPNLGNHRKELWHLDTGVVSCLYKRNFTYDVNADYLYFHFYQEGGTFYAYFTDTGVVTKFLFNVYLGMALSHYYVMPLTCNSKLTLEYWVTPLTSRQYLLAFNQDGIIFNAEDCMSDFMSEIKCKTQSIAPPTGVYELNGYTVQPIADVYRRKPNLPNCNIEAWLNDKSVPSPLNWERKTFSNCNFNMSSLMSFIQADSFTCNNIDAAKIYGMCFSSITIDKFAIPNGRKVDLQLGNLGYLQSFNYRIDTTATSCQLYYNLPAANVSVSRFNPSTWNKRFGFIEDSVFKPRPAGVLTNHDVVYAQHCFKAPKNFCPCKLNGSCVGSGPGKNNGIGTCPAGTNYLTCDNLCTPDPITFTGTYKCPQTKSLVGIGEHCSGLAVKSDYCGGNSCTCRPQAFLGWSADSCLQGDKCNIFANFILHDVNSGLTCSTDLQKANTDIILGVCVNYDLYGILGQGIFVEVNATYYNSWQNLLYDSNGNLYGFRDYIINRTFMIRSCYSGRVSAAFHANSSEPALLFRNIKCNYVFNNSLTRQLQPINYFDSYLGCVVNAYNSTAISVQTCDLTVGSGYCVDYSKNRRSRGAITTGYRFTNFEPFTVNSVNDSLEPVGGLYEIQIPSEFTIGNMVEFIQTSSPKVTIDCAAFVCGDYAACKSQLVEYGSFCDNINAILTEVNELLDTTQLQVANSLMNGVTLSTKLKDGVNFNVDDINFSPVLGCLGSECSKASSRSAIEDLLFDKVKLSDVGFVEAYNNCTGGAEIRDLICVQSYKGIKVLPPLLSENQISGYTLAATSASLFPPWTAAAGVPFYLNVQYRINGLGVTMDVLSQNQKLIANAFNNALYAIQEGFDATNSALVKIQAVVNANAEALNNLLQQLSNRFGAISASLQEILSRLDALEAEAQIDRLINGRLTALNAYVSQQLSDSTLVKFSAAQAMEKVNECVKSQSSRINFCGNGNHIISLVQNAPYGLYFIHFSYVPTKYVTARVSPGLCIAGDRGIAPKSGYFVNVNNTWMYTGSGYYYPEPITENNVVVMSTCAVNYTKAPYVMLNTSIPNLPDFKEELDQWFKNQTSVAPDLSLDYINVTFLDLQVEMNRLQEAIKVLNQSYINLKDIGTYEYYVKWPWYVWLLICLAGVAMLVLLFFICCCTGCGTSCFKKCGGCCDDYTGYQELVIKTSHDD

SMILES: CC[C@H](C)[C@H](NC(=O)[C@H](C)NC(=O)[C@H](CCC(=O)O)NC(=O)[C@H](CCC(=O)O)NC(=O)[C@H](CC(C)C)NC(=O)[C@H](CCCCN)NC(=O)[C@H](CCCCN)NC(=O)[C@H](CCSC)NC(=O)[C@H](CCC(=O)O)NC(=O)[C@H](Cc1ccc(O)cc1)NC(=O)[C@H](CCC(=O)O)NC(=O)[C@H](CC(C)C)NC(=O)[C@H](CC(=O)O)NC(=O)[C@H](CC(C)C)NC(=O)[C@H](Cc1ccccc1)NC(=O)[C@@H](NC(=O)[C@@H](NC(=O)[C@H](CC(N)=O)NC(=O)[C@@H](NC(=O)[C@H](CCC(N)=O)NC(=O)[C@H](CC(=O)O)NC(=O)[C@H](CC(C)C)NC(=O)[C@@H](N)CO)[C@@H](C)CC)C(C)C)[C@@H](C)O)C(=O)N[C@@H](CCCCN)C(=O)N[C@@H](CCCCN)C(=O)N[C@@H](CC(C)C)C(=O)N[C@@H](CCC(=O)O)C(=O)N[C@@H](CCC(=O)O)C(=O)N[C@@H](CO)C(=O)N[C@@H](Cc1ccc(O)cc1)C(=O)N[C@H](C(=O)N[C@@H](CC(=O)O)C(=O)N[C@@H](CC(C)C)C(=O)N[C@@H](CCCCN)C(=O)N[C@@H](CCC(=O)O)C(=O)N[C@@H](CC(C)C)C(=O)NCC(=O)N[C@@H](CO)C(=O)NCC(=O)N[C@@H](CO)C(=O)NCC(=O)NCCOCCOCCOCCOCCC(=O)N[C@@H](CSCC(=O)O[C@H]1CC[C@@]2(C)C(=CC[C@H]3[C@@H]4CC[C@H]([C@H](C)CCCC(C)C)[C@@]4(C)CC[C@@H]32)C1)C(N)=O)[C@@H](C)CC [EK1C4]
- Fold more potent than EK1C1, SARS-CoV-2 S-mediated cell–cell fusion [1]: 43 fold
- Fold more active than EK1, SARS-CoV S-mediated cell–cell fusion [2]: about 94 fold
- Fold more active than EK1, HCoV-NL63 PsV infection [3]: ~99 fold
- IC50 ([3]; 72 h): 0.0766 µM
- Fold more potent than EK1, SARS-CoV-2 PsV infection [4]: ~150 fold and 149 fold
- IC50 ([4]; PsV, 72 h): 0.0158 µM
- Fold more potent than EK1, MERS-S-mediated cell–cell fusion [5]: 95 fold
- Fold more potent than EK1, Rs3367 PsV infection [6]: 89 fold
- IC50 ([6]; 72 h): 0.0669 µM
- Viral titer in brain, Post-0.5 group ([7]; 0.5 mg/kg intranasal 0.5 h after challenge, day 5, 5 mice, limit of detection lg2.0 TCID50/g): not detected
- Brain histopathology, Post-0.5 group ([7]; 0.5 mg/kg intranasal 0.5 h after challenge, day 5, one mouse): no apparent histopathological changes
- Brain histopathology, Pre-0.5 group ([7]; 0.5 mg/kg intranasal 0.5 h before challenge, day 5, one mouse): no apparent histopathological changes
- Viral titer in brain, Pre-0.5 group ([7]; 0.5 mg/kg intranasal 0.5 h before challenge, day 5 after infection, 5 mice, limit of detection lg2.0 TCID50/g): not detected
- Mice with high viral titer detected in brain, Post-2 group ([7]; 0.5 mg/kg intranasal 2 h after challenge, day 5, 5 mice, limit of detection lg2.0 TCID50/g): 4 out of 5 mice
- Viral titer in brain, Pre-2 group ([7]; 0.5 mg/kg intranasal 2 h before challenge, day 5, 5 mice, limit of detection lg2.0 TCID50/g): not detected
- Brain histopathology, Pre-2 group ([7]; 0.5 mg/kg intranasal 2 h before challenge, day 5, one mouse): no apparent histopathological changes
- Viral titer in brain, Pre-4 group ([7]; 0.5 mg/kg intranasal 4 h before challenge, day 5, 5 mice, limit of detection lg2.0 TCID50/g): not detected
- Brain histopathology, Pre-4 group ([7]; 0.5 mg/kg intranasal 4 h before challenge, day 5, one mouse): no apparent histopathological changes
- Viral titer in brain, Pre-12 group ([7]; 0.5 mg/kg intranasal 12 h before challenge, day 5, 5 mice, limit of detection lg2.0 TCID50/g): only moderate level of viral titer was detected in brain tissue in one of the 5 mice
- Brain histopathology, Pre-12 group ([7]; 0.5 mg/kg intranasal 12 h before challenge, day 5, one mouse): no apparent histopathological changes
- Mice with high viral titer detected in brain, Pre-24 group ([7]; 0.5 mg/kg intranasal 24 h before challenge, day 5, 5 mice, limit of detection lg2.0 TCID50/g): all 5 mice
- Survival rate, Post-0.5 group ([7]; newborn mice, intranasal 0.5 mg/kg 0.5 h after HCoV-OC43 infection): 100%
- Survival rate, Post-2 group ([7]; newborn mice, intranasal 0.5 mg/kg 2 h after HCoV-OC43 infection): 16.7%
- Final survival rate, Pre-0.5 group ([7]; newborn mice, single intranasal dose 0.5 mg/kg 0.5 h before HCoV-OC43 challenge (100 TCID50), 14 days): 100%
- Final survival rate, Pre-2 group ([7]; newborn mice, single intranasal dose 0.5 mg/kg 2 h before HCoV-OC43 challenge (100 TCID50), 14 days): 100%
- Final survival rate, Pre-4 group ([7]; newborn mice, single intranasal dose 0.5 mg/kg 4 h before HCoV-OC43 challenge (100 TCID50), 14 days): 100%
- Final survival rate, Pre-12 group ([7]; newborn mice, single intranasal dose 0.5 mg/kg 12 h before HCoV-OC43 challenge (100 TCID50), 14 days): 83%
- Final survival rate, Pre-24 group ([7]; newborn mice, single intranasal dose 0.5 mg/kg 24 h before HCoV-OC43 challenge (100 TCID50), 14 days): 0%
- Fold more potent than EK1, live HCoV-229E infection [8]: 42 fold
- IC50 ([8]; 1 h): 0.102 µM
- Fold more potent than EK1, live HCoV-NL63 infection [9]: 19 fold
- IC50 ([9]; 1 h): 0.188 µM
- IC50 [10]: 0.0377 µM
- IC50 [11]: 0.0117 µM
- Fold more active than EK1, live SARS-CoV-2 infection [12]: 67 fold
- IC50 ([12]; live, 72 h): 0.0365 µM
- Stability and Tm of complex with SARS-2-HR1 compared with EK1 complex [13]: higher stability and increased Tm values
- IC50 [14]: 0.0111 µM
- Fold more potent than EK1, live HCoV-OC43 infection [15]: 62 fold
- IC50 ([15]; 1 h): 0.0248 µM
- Fold more potent than EK1, WIV1 PsV infection [16]: 175 fold
- IC50 ([16]; 72 h): 0.0308 µM
- Fold more potent than EK1, OC43-S-mediated cell–cell fusion [17]: 101 fold
- Fold more potent than EK1, live MERS-CoV infection [18]: 190 fold
- IC50 ([18]; 72 h): 0.0042 µM
- Fold more active than EK1, HCoV-229E PsV infection [19]: about 319 fold
- IC50 ([19]; 72 h): 0.0124 µM

From paper PMC7104723 (Cell Research, 2020)
